Measured values reported in a melting point compilation (Tetko et al.; mined from patent text by program, amines drawn as free bases though some values may be those of a salt).

melting point [°C] | SMILES
295 to 298 | COc1ccc(-c2cc(=O)c3c(O)cc(O)c(-c4cc(-c5cc(=O)c6c(O)cc(OC)cc6o5)ccc4OC)c3o2)cc1
99 to 106 | CCC(=O)OCCSCC(=O)NC/C=C\COc1cc(CN2CCCCC2)ccn1
144 to 146 | O=C1N(Cc2ccccn2)c2ccccc2C12COc1cc3c(cc12)OCCO3 (stereo not given)
80 to 81 | COC(=O)c1ccc(OC2=C3N=C4CCCCC4=C3C(Cc3ccc(C)cc3)C=C2)o1 (stereo not given)
124 | CCCCC(O)(c1cn(C(c2ccccc2)(c2ccccc2)c2ccccc2)cn1)c1cc(Cl)cc2c1OC(C)(C)OC2 (stereo not given)
78 to 83 | Cc1cc(C2(C(F)(F)F)ON=C(c3ccc(F)cc3)O2)ccc1N (stereo not given)
140 to 143 | CN1C(=O)NCc2cccnc21
288 to 290 | Cn1nc(N)c2cc3ccc(O)cc3nc21
168 to 170 | CN(C(=O)C(F)(F)F)c1cnc(-c2cncc(F)c2)s1
136 | COc1nc(C)nc(OC)c1C=S
94 to 96 | CC(C)(C)c1cc(Cc2nc3ccccc3o2)cc(C(C)(C)C)c1O
106 to 108 | CC(C)(C)OC(=O)N(CCOc1cccc2[nH]cc(Cl)c12)Cc1ccccc1
115 to 116 | CC(C)(C)OC(=O)CNC(=O)c1sc(Nc2ccccc2)c2c1CCc1cnoc1-2
234 to 235 | O=C(N1CCC(c2ccncc2)CC1)N1CCN(S(=O)(=O)c2ccc(Cl)cc2)CC1
135 to 136 | CC(C)=C1OC(=O)N(c2ccc(Cl)cc2)C1=O
115 to 117 | O=C1CC(CCN2CCC(c3c[nH]c4ccccc34)CC2)c2ccccc2N1 (stereo not given)
162 to 164 | CC(=O)C1CCC2C3CCC4=CC(=O)C=CC4(C)C3C(O)CC12CO[N+](=O)[O-] (stereo not given)
86 to 89 | c1csc(C2=NOCCS2)c1
157 to 159 | COC(=O)CCCCCc1c(OC)cc(C(C)(C)C)c(O)c1NC(=O)NNC(=O)Nc1cc(OC)cc(C(C)(C)C)c1O
108 to 109 | COc1c(C)c(C)c2c(c1C)C(c1ccc(C=O)cc1)C(C)(C)O2 (stereo not given)
199 to 206 | Cc1[nH]c2cccnc2c1-c1ccc(F)cc1

melting point [°C] | SMILES
197 to 199 | O=C(NS(=O)(=O)c1ccccc1-c1ccc(Cn2c(CCCC(F)(F)F)nn(-c3ccccc3C(F)(F)F)c2=O)cc1)c1ccccc1
226 to 227 | COc1ccccc1Oc1cc2c(=O)c(NC=O)coc2cc1NS(C)(=O)=O
65 to 67 | CC1(C)CC(=O)c2c(O)ccc(Br)c2C1
78 to 81 | CCC1(CC)C(=O)N(c2ccccc2)CC(C)(C)N1OC(C)c1ccccc1 (stereo not given)
51 to 52 | O=C(NCCc1ccc(F)cc1)OCc1ccccc1
126 to 127 | CSc1ccc(C(C)C)c(NC(=O)CN2CCN(CCCSc3nc4ccccc4o3)CC2)c1C(C)C
233 to 234 | CCC(=O)c1cc2n(c(=O)c1C)Cc1cc3ccccc3nc1-2
280 to 284 | CCOc1cc2ncc(C#N)c(Nc3ccc4c(c3)C(=O)OC4)c2cc1OCC
225 to 228 | O=C(O)C1=Cc2cc(Cl)ccc2N(Cc2ccc([N+](=O)[O-])cc2)C1C(F)(F)F (stereo not given)
150 to 152 | CNC(=O)N1CCC(c2nn(-c3ccc(C(F)(F)F)cc3)c3ccccc23)CC1
200 | COc1ccc(C(=O)c2[nH]c(=S)[nH]c2C)cc1
124 to 128 | Nc1cc(F)ccc1C(=O)CCCN1CCN(c2cc3ccccc3cn2)CC1
182 | O=S1(=O)CCCS(=O)(=O)C1(CCCCl)c1ccccc1
58 to 60 | Cn1cncc1[N+](=O)[O-]
125 to 128 | CCOCc1nc2c(N)nc3ccccc3c2n1NC(CC)CC
112 to 114 | COc1cccc(COCCC(C(=O)O)c2ccccc2)c1 (stereo not given)
131 to 133 | CSc1ccc(C(=O)c2c(C)sc3c2CCC3C(=O)O)cc1 (stereo not given)
83.5 to 85.5 | C[C@H]1[C@H](c2ccccc2)OC(c2cc(Br)cc3c2OCC3)N1C (stereo not given in full)
265 to 280 | COc1cccc(NC(=O)NC2CC(c3ccccc3F)c3ccccc3N(CC(=O)NC(C)(C)C)C2=O)c1 (stereo not given)
200 to 202 | CCCc1nc2c(C)ccnc2n1Cc1ccc(-c2ccccc2-c2nnn[nH]2)cc1
155 to 157 | CCCCCCCCCCCCc1nnn(C(C)C(=O)Nc2c(OC)cc(OC)cc2OC)n1 (stereo not given)

Second part, the compound before the results:

SMILES | melting point [°C]
CNc1sc(-c2cccnc2)nc1C(F)(F)F | 152 to 157
CCOC(=O)N1CC(C)(C)CSC1=Nc1ccccc1C(C)C | 84 to 86
Cc1cc(Cl)ccc1-n1cnnc1C(F)(F)F | 90
COc1cc2c(cc1Nc1ncc(Cl)c(Nc3ccc(N4CCOCC4)cc3OC)n1)CCN(CC(=O)N1CCCC1)CC2 | 82 to 105
N[C@@H](C/C(=C\C1CC1)C(=O)O)C(=O)O | 204
O=C(O)c1csc(Cn2cc(C3c4ccc(Br)cc4C=Cc4cc(Br)ccc43)c(=S)[nH]c2=O)n1 | 215 to 217
Cc1c(C(=O)O)c(=O)cc(-c2ccccc2)n1C | 220 to 225
CCCCCCN1CC[C@H](NC(=O)c2cc(Cl)c(N)c3c2OCC3)[C@H](O)C1 (relative stereo) | 130
Cc1ccc(C23CN(C)CC2CC32SCCS2)cc1 (stereo not given) | 81 to 86
CS(=O)(=O)N(Cc1cccnc1)c1ccc(O)cc1 | 208 to 210
CN1Cc2c(C(=O)OC3CCCC3)ncn2-c2cccc(Cl)c2C1=O | 162 to 163
CCOC(OCC)N1C(=O)C(c2ncnc3cc(OCCOC)c(OC)cc23)c2cc(F)ccc21 (stereo not given) | 245 to 255
Cc1c(CO)c2cnnc(NCc3ccccc3)c2n1Cc1ccccc1 | 238 to 240
c1ccc(CCOc2ncnc3nc[nH]c23)cc1 | 209 to 210
Cc1ccc(NC(=O)Nc2ccc(Oc3cc(Cl)ncn3)cc2)cc1 | 217 to 219
O=P(O)(O)C(Cc1cnsn1)P(=O)(O)O | > 300
O=C(O)c1cc2cc(O)ccc2o1 | 223 to 228
N#Cc1c(CBr)c(C#N)c(CBr)c(C#N)c1CBr | 120
COc1ccc(/C=C/c2nc3c(c(=O)n(C)c(=O)n3C)n2C)c(C)c1C | > 275
O=Cc1ccc(/C=C/c2ccncc2)cc1 | 116 to 117

SMILES | melting point [°C]
CN(C)C=C1C(=O)N(c2cccc(F)c2)c2ccccc21 | 87 to 88.5
Nc1ncnc(OCc2ccccc2)c1[N+](=O)[O-] | 149 to 150
CCCn1c(=O)c2[nH]c(/C=C/c3cc(C)c(OC)cc3C)nc2n(CCC)c1=O | 268 to 269
N#Cc1ccc(NS(=O)(=O)c2ccc([N+](=O)[O-])cc2[N+](=O)[O-])cc1 | 186 to 187
CN1CCC2(c3ccccc3)OC2C1 (stereo not given) | 44 to 45
CCCCN(Cc1ccc(-c2ccccc2-c2nnn[nH]2)cc1)c1ncncc1C(=O)OCC | 109 to 111
Cc1oc2ccccc2c(=O)c1NC(=O)C(=O)O | 208
CCOC(=O)C(=O)C1C(=O)c2c(OC)ccc3c2C1CCO3 (stereo not given) | 104 to 106
CC(C)CCN1C(=O)C(NC(=O)Oc2ccccc2)C(=O)N(c2ccccc2)c2ccccc21 (stereo not given) | 70
NC(=O)c1[nH]c2cccnc2c1Sc1cccc(F)c1 | 235 to 237
C=CCOc1ccccc1C1C=NNC(=O)C1 (stereo not given) | 93 to 95
COc1cc(C(=O)Cc2nnnn2C)c(N)cc1Cl | 178 to 181
Cc1ccc(CCOc2ccc(CC3SC(=O)NC3=O)cc2)nc1 (stereo not given) | 192 to 193
O=C(O)c1ccccc1Nc1ccncc1 | 275 to 280
Cc1nnc2n1-c1sc(CC(=O)N3CCOCC3)cc1C(c1ccccc1Cl)=NC2C (stereo not given) | 126 to 129
CC(=O)CCc1c(OC(C)=O)cc(C(C)C)c(OC(C)=O)c1C(C)C | 108 to 112
c1ccc(NN2CCc3ccccc3C2)nc1 | 116 to 117
CCCC(=O)Oc1ccc(C(O)CNC(C)(C)C)cc1OC(=O)CCC (stereo not given) | 97 to 99
CCOc1ccc2cccnc2c1N | 94 to 95
CC(C)N1CCN(c2ccc(Br)cn2)CC1 | 76 to 78

SMILES | melting point [°C]
CN(C)S(=O)(=O)n1cc(I)cn1 | 32
CNC(=O)Nc1scc(C(C)C)c1C#N | 179 to 181
O=C(c1ccccc1)c1ccccc1SSc1ccccc1C(=NO)c1ccccc1 | 191 to 193
Cc1c(NC(=O)c2ccc(-c3ccc(OC(F)(F)F)cc3)cc2)ccc2cc(CN3CCCC3)cnc12 | 200 to 202
Cc1nc2cc(NC(=O)c3cc4cc(F)ncc4n3Cc3cccc(F)c3)ccc2n1C | 245 to 247
O=C(c1cccc(C(F)(F)F)c1)N(CCCCn1ccnc1)C1=Nc2cccc3cccc1c23 | 165 to 167
C=CCON=C(C(=O)O)c1nc(NC=O)sc1Cl | 166 to 167
COc1cc2c(cc1OC)CN(CCc1ccc(NC(=O)c3cccc4c(=O)c5cccc(F)c5[nH]c34)c(C)c1)CC2 | 210
C=CCONC(=O)c1nc(-c2ccc(Cl)c(OC)c2F)nc(N)c1Cl | 159 to 161
COC1CC(C)(C)C(O)C(OC(=O)c2ccccc2)C=C1C (stereo not given) | 98 to 99
O=C1C=C(O)C(=O)c2cc(Br)ccc21 | 197
O=C(N[C@H]1CCN(C(=O)c2cc(C(F)(F)F)cc(C(F)(F)F)c2)[C@H](Cc2ccc(Cl)cc2)C1)c1cc(O)nc2ccccc12 | 222 to 224
CC(C)CCC(Sc1ccccc1)c1c(O)cc(-c2ccccc2)oc1=O (stereo not given) | 144 to 145
CC(=O)Nc1ccc2c3c1c(=O)c(C(=O)O)cn3C1CCCCC21 (stereo not given) | 187 to 190
CCOC(=O)c1n[nH]c(C(=O)OCC)c1C(=O)c1ccc(Cl)cc1[N+](=O)[O-] | 168
COCC(=O)N(CC(C)=NOC)c1c(C)cccc1C | 56 to 57
COc1cc(C(=O)CS(=O)(=O)c2ccccc2)ccc1Cc1cn(C)c2ccc(NC(=O)NC3CCCC3)cc12 | 203 to 206
CCCc1c(C(=O)N(C)Cc2ccc3cc(O)ccc3c2)cnn1-c1ccccc1 | 138 to 141
